Measurements: publication PMC5143673 (Innate immunity, 2016)
Non-standard residues stand in square brackets, D forms with d. No end group written: not given here. hCit = NC(=O)NCCCC[C@H](N)C(=O)O

Experiments:
[1] = tested on: neutrophils
[2] = biological target: N-HisTag containing ApoA1 (NH-ApoA1) (UniProt P02647); test: SPR
Chain of UniProt P02647 (P02647 19-267): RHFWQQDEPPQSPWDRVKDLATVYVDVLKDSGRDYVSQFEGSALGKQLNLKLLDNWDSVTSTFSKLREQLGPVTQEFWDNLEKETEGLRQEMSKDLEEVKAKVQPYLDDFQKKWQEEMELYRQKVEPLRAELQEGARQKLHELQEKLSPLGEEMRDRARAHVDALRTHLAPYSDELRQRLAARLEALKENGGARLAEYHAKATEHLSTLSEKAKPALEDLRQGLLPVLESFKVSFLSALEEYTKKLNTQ

Row | Molecule | capacity to lyse neutrophils and erythrocytes [1] | fold lower affinity than native LL-37 [2] [fold]
1 | LLGDFFRKSKEKIGKEFKRIVQRIKDFLRNLVPRTES [LL-37] | ability of LL-37^C8 and LL-37^C12,15 to lyse neutrophils and erythrocytes was different | 
2 | LLGDFFRKSKE[hCit]IG[hCit]EFKRIVQRIKDFLRNLVPRTES [LL-37^C12,15 (LL-37 carbamylated on Lys-12 and Lys-15)] |  | 3
